{"source": "patent US8192962B2", "about": "“Processes for detecting toxic substances” (Daikin Industries, Ltd., priority 2001, dated 2012)", "tested_on": "Genes belonging to other category", "experiment": "DNA chip mRNA expression in yeast, genes belonging to other category (Table 9)", "format": "cell-based, Saccharomyces cerevisiae S288C", "method": "Yeast (Saccharomyces cerevisiae S288C (α SUC2mal mel gap2 CUP1)) were incubated at 25° C. on YPD medium (yeast extract 1%, polypepton 2%, glucose 2%). One of toxic chemical substances was added to the cells at logarithmic growth phase, and the cells were further incubated for two hours. Cells were cultured without any chemical substance in the same condition, and were used as control. Concentrations of the chemical substances were defined to inhibit the growth of the yeast but not lead to death.\nAfter completion of the incubation, the culture was centrifuged to collect the cells. To the cells, sodium acetate buffer (50 mM sodium acetate, 10 mM EDTA, 1% SDS) was added, and the mixture was shaken at 65° C. for five minutes, followed by returning to room temperature, and obtaining the supernatant, of which the procedures were repeated two times. To the supernatant, ½ amount of a solution of phenol/chloroform was added, and the mixture was centrifuged to give a supernatant, which was added with an equal amount of chloroform, and the mixture was centrifuged to give a supernatant. To the supernatant, an equal amount of isopropanol containing 0.3 M sodium acetate was added, and the mixture was allowed to stand at room temperature for 30 minutes, after which the mixture was centrifuged to give a sediment of the whole RNAs. Seventy % ethanol was added to the sediment, and the mixture was again centrifuged to give a sediment, which was then dried and dissolved in water. mRNA was isolated from the whole RNAs as followings. In view of the fact that a poly A chain is attached to the 3′ terminus of mRNA, a polynucleotide having a poly T structure which was immobilized on the surface of latex beads was used to trap the mRNA, and then the mRNA was washed and eluted with spine column (Oligotex-dT30<Super>mRNA Purification Kit, Takara). Reverse transcription of the mRNA was conducted with a reverse transcriptase (Super Script II Reverse Transcriptase; catalogue No. 18064-014, GibcoBRL) using fluorescence-labeled nucleotides to give cDNAs that were introduced with Cy3-dUTP or Cy5-dUTP during the reverse transcription.\nThe labeled cDNAs were dissolved in TE buffer (10mM Tris-HCl/1 mM EDTA, pH8.0), and the solution was dropped on the DNA chip containing the whole genes of yeast (DNA Chip Research Inc. Japan) so that the cDNAs were hybridized on the DNA chip at 65° C. for over 12 hours. The fluoresces intensity of the DNA chip was read with a scanner, and the ratio relative to the fluorescence intensity resulting from the absence of chemical substance was estimated as the following, which is shown in Tables 1 to 9: […]", "data": [{"smiles": "[Cl][Hg][Cl]", "note": "[(3), HgCl2]", "values": [{"measurement": "The level of expressed mRNA in the presence of chemical substance/The level of expressed mRNA in the absence of chemical substance", "setting": "yeast gene YAR010C", "result": 1.2}, {"measurement": "The level of expressed mRNA in the presence of chemical substance/The level of expressed mRNA in the absence of chemical substance", "setting": "yeast gene YBL005W-A", "result": 0.5}, {"measurement": "The level of expressed mRNA in the presence of chemical substance/The level of expressed mRNA in the absence of chemical substance", "setting": "yeast gene YBL041W", "result": 0.9}, {"measurement": "The level of expressed mRNA in the presence of chemical substance/The level of expressed mRNA in the absence of chemical substance", "setting": "yeast gene YBL043W", "result": 1.1}, {"measurement": "The level of expressed mRNA in the presence of chemical substance/The level of expressed mRNA in the absence of chemical substance", "setting": "yeast gene YBL078C", "result": 1.3}, {"measurement": "The level of expressed mRNA in the presence of chemical substance/The level of expressed mRNA in the absence of chemical substance", "setting": "yeast gene YBR214W", "result": 5.7}, {"measurement": "The level of expressed mRNA in the presence of chemical substance/The level of expressed mRNA in the absence of chemical substance", "setting": "yeast gene YCL020W", "result": 0.5}, {"measurement": "The level of expressed mRNA in the presence of chemical substance/The level of expressed mRNA in the absence of chemical substance", "setting": "yeast gene YCL027W", "result": 1.0}, {"measurement": "The level of expressed mRNA in the presence of chemical substance/The level of expressed mRNA in the absence of chemical substance", "setting": "yeast gene YCR004C", "result": 12.0}, {"measurement": "The level of expressed mRNA in the presence of chemical substance/The level of expressed mRNA in the absence of chemical substance", "setting": "yeast gene YCR071C", "result": 0.9}, {"measurement": "The level of expressed mRNA in the presence of chemical substance/The level of expressed mRNA in the absence of chemical substance", "setting": "yeast gene YCR088W", "result": 1.2}, {"measurement": "The level of expressed mRNA in the presence of chemical substance/The level of expressed mRNA in the absence of chemical substance", "setting": "yeast gene YDL008W", "result": 1.0}, {"measurement": "The level of expressed mRNA in the presence of chemical substance/The level of expressed mRNA in the absence of chemical substance", "setting": "yeast gene YDL238C", "result": 1.1}, {"measurement": "The level of expressed mRNA in the presence of chemical substance/The level of expressed mRNA in the absence of chemical substance", "setting": "yeast gene YDR055W", "result": 2.2}, {"measurement": "The level of expressed mRNA in the presence of chemical substance/The level of expressed mRNA in the absence of chemical substance", "setting": "yeast gene YDR084C", "result": 1.5}, {"measurement": "The level of expressed mRNA in the presence of chemical substance/The level of expressed mRNA in the absence of chemical substance", "setting": "yeast gene YDR085C", "result": 1.6}, {"measurement": "The level of expressed mRNA in the presence of chemical substance/The level of expressed mRNA in the absence of chemical substance", "setting": "yeast gene YDR104C", "result": 1.2}, {"measurement": "The level of expressed mRNA in the presence of chemical substance/The level of expressed mRNA in the absence of chemical substance", "setting": "yeast gene YDR115W", "result": 0.6}, {"measurement": "The level of expressed mRNA in the presence of chemical substance/The level of expressed mRNA in the absence of chemical substance", "setting": "yeast gene YDR259C", "result": 0.4}, {"measurement": "The level of expressed mRNA in the presence of chemical substance/The level of expressed mRNA in the absence of chemical substance", "setting": "yeast gene YDR315C", "result": 1.0}, {"measurement": "The level of expressed mRNA in the presence of chemical substance/The level of expressed mRNA in the absence of chemical substance", "setting": "yeast gene YDR358W", "result": 0.7}, {"measurement": "The level of expressed mRNA in the presence of chemical substance/The level of expressed mRNA in the absence of chemical substance", "setting": "yeast gene YDR388W", "result": 1.2}, {"measurement": "The level of expressed mRNA in the presence of chemical substance/The level of expressed mRNA in the absence of chemical substance", "setting": "yeast gene YDR432W", "result": 1.0}, {"measurement": "The level of expressed mRNA in the presence of chemical substance/The level of expressed mRNA in the absence of chemical substance", "setting": "yeast gene YDR481C", "result": 1.3}, {"measurement": "The level of expressed mRNA in the presence of chemical substance/The level of expressed mRNA in the absence of chemical substance", "setting": "yeast gene YDR510W", "result": 1.5}, {"measurement": "The level of expressed mRNA in the presence of chemical substance/The level of expressed mRNA in the absence of chemical substance", "setting": "yeast gene YEL042W", "result": 1.7}, {"measurement": "The level of expressed mRNA in the presence of chemical substance/The level of expressed mRNA in the absence of chemical substance", "setting": "yeast gene YEL066W", "result": 1.5}, {"measurement": "The level of expressed mRNA in the presence of chemical substance/The level of expressed mRNA in the absence of chemical substance", "setting": "yeast gene YER039C", "result": 1.0}, {"measurement": "The level of expressed mRNA in the presence of chemical substance/The level of expressed mRNA in the absence of chemical substance", "setting": "yeast gene YER107C", "result": 1.0}, {"measurement": "The level of expressed mRNA in the presence of chemical substance/The level of expressed mRNA in the absence of chemical substance", "setting": "yeast gene YER130C", "result": 0.5}, {"measurement": "The level of expressed mRNA in the presence of chemical substance/The level of expressed mRNA in the absence of chemical substance", "setting": "yeast gene YFL022C", "result": 1.5}, {"measurement": "The level of expressed mRNA in the presence of chemical substance/The level of expressed mRNA in the absence of chemical substance", "setting": "yeast gene YFL028C", "result": 0.7}, {"measurement": "The level of expressed mRNA in the presence of chemical substance/The level of expressed mRNA in the absence of chemical substance", "setting": "yeast gene YFL043C", "result": 0.6}, {"measurement": "The level of expressed mRNA in the presence of chemical substance/The level of expressed mRNA in the absence of chemical substance", "setting": "yeast gene YGL158W", "result": 1.9}, {"measurement": "The level of expressed mRNA in the presence of chemical substance/The level of expressed mRNA in the absence of chemical substance", "setting": "yeast gene YGL229C", "result": 0.9}, {"measurement": "The level of expressed mRNA in the presence of chemical substance/The level of expressed mRNA in the absence of chemical substance", "setting": "yeast gene YGR136W", "result": 1.3}, {"measurement": "The level of expressed mRNA in the presence of chemical substance/The level of expressed mRNA in the absence of chemical substance", "setting": "yeast gene YGR189C", "result": 1.5}, {"measurement": "The level of expressed mRNA in the presence of chemical substance/The level of expressed mRNA in the absence of chemical substance", "setting": "yeast gene YGR213C", "result": 1.0}, {"measurement": "The level of expressed mRNA in the presence of chemical substance/The level of expressed mRNA in the absence of chemical substance", "setting": "yeast gene YGR257C", "result": 0.9}, {"measurement": "The level of expressed mRNA in the presence of chemical substance/The level of expressed mRNA in the absence of chemical substance", "setting": "yeast gene YHR004C", "result": 0.8}, {"measurement": "The level of expressed mRNA in the presence of chemical substance/The level of expressed mRNA in the absence of chemical substance", "setting": "yeast gene YHR071W", "result": 0.6}, {"measurement": "The level of expressed mRNA in the presence of chemical substance/The level of expressed mRNA in the absence of chemical substance", "setting": "yeast gene YHR139C", "result": 6.8}, {"measurement": "The level of expressed mRNA in the presence of chemical substance/The level of expressed mRNA in the absence of chemical substance", "setting": "yeast gene YHR142W", "result": 2.1}, {"measurement": "The level of expressed mRNA in the presence of chemical substance/The level of expressed mRNA in the absence of chemical substance", "setting": "yeast gene YIL123W", "result": 1.2}, {"measurement": "The level of expressed mRNA in the presence of chemical substance/The level of expressed mRNA in the absence of chemical substance", "setting": "yeast gene YIL140W", "result": 1.5}, {"measurement": "The level of expressed mRNA in the presence of chemical substance/The level of expressed mRNA in the absence of chemical substance", "setting": "yeast gene YJL073W", "result": 2.5}, {"measurement": "The level of expressed mRNA in the presence of chemical substance/The level of expressed mRNA in the absence of chemical substance", "setting": "yeast gene YJL089W", "result": 1.0}, {"measurement": "The level of expressed mRNA in the presence of chemical substance/The level of expressed mRNA in the absence of chemical substance", "setting": "yeast gene YJL116C", "result": 1.3}, {"measurement": "The level of expressed mRNA in the presence of chemical substance/The level of expressed mRNA in the absence of chemical substance", "setting": "yeast gene YJR004C", "result": 3.4}, {"measurement": "The level of expressed mRNA in the presence of chemical substance/The level of expressed mRNA in the absence of chemical substance", "setting": "yeast gene YJR086W", "result": 0.8}]}]}
